We go through two compounds from US9364471B2, “Compositions and methods of treating retinal disease” (ALDEYRA THERAPEUTICS, INC., priority 2005, dated 2016).

Structures are written as SMILES.

Data set [1] deals with light sensitivity of dark adapted rats. In words: ERG analysis of dark adaptation, dose ranging protocol. To be noted: i.p. Format: in vivo, rat. Here is the method: Dark adaptation is the recovery of visual sensitivity following exposure to light. Dark adaptation has multiple components including both fast (neuronal) processes and slow (photochemical) process. Regeneration of visual pigment is related to the slow photochemical process. Dark adaptation rates are measured for several reasons. Night blindness results from a failure to dark adapt (loss of visual light sensitivity). It is possible to find a safe dose for night vision by measuring drug effects on dark adapted visual light sensitivity.
An electroretinogram (ERG) is used measure dark adaptation under normal vs. drug conditions. ERG is the measurement of the electric field potential emitted by retinal neurons during their response to an experimentally defined light stimulus. More specifically, ERG measures retinal field potentials at the cornea after a flash of light (e.g., 50 ms). Field strengths are 10^2 to 10^3 microvolts, originating in retinal cells.
ERG is a non-invasive measurement which can be performed on either living subjects (human or animal) or a hemisected eye in solution that has been removed surgically from a living animal. […]
The ERG measurement is taken after a specific duration of post-bleach dark recovery (e.g., 30 min) determined previously by kinetic analysis (see FIGS. 6a and 6b). […]

Data set [2] can be described thus: NMR analysis of RAL reactions (Schiff base condensation and ring formation). The class given is physicochemical. Particulars: Schiff base condensation with RAL, pure chloroform.

Consider `CCOC(=O)c1cccc(N)c1` [Compound 6, tricaine methane sulfonate], for which the “effect on ERG light sensitivity of dark adapted rats” value in data set [1] (dose ranging, FIG. 7) is listed as “lowers light sensitivity of dark adapted rats in a dose dependent manner”. For the same compound, the “duration of the effect on vision” value in data set [1] (rat ERG) was “decreases after 3 hours”.

On to `CC(C)(O)c1nc2ccc(Cl)cc2cc1N` [Compound 9], for which the “tau (minutes) condense” value in data set [2] was determined as 320 min.
